Measured values published in patent publication US6613718B2, “Aryl ether derivatives and processes for their preparation and herbicidal and desiccant compositions containing them” (Ishihara Sangyo Kaisha, Ltd., priority 2001, dated 2003).

Experiments:
Format in all cases: in vivo
Conditions in all cases: 14 days after application
[1] = system: soybean (Glycine max L., var. Pella 86, SOY); assay: Post-emerge greenhouse screening, crop safety (phytotoxicity rating)
Excerpt: (§1) A standard greenhouse herbicide activity screening system was used to evaluate the herbicidal efficacy and crop safety of these test compounds. Seven broadleaf weed species including redroot pigweed (Amaranthus retroflexus, AMARE), velvetleaf (Abutilon theophrasti, ABUTH), sicklepod (Cassia obtusifolia, CASOB), ivyleaf morningglory (Ipomoea hederacea, IPOHE), lambsquarters (Chenopodium album, CHEAL), common ragweed (Ambrosia artemisiifolia L., AMBEL), and cocklebur (Xanthium strumarium, XANST) were used as test species. Four grass weed species including green foxtail (Setaria viridis, SETVI), barnyardgrass (Echinochloa crus-galli, ECHCG), johnsongrass (Sorghum halepense, SORHA), and large crabgrass (Digitaria sanguinalis, DIGSA) were also used. In addition, three crop species, field corn (Zea mays L., var. Dekalb 535, CORN), soybean (Glycine max L., var. Pella 86, SOY), and upland rice (Oryza sp., var.Tebonnet, RICE) were included.
(§2) All plants were grown in 10 cm square plastic pots which were filled with a sandy loam soil mix. For pre-emerge tests, seeds were planted one day prior to application of the test compounds. For post-emerge tests, seeds were planted 8-21 days prior to the test to allow emergence and good foliage development prior to application of the test substances. At the time of the post-emerge application, plants of all species were usually at the 2-3 leaf stage of development.
(§3) All test compounds were dissolved in acetone and applied to the test units in a volume of 187 1/ha. Test materials were applied at rates ranging from 15 g ai/ha to 1000 g ai/ha using a track sprayer equipped with a TJ8001E even flow flat fan spray nozzle. Plants were arranged on a shelf so that the top of the canopy (post-emerge) or top of the soil surface (pre-emerge) was 40-45 cm below the nozzle. Pressurized air was used to force the test solution through the nozzle as it was mechanically advanced (via electrically driven chain drive) over the top of all test plants/pots. This application simulates a typical commercial field herbicide application.
(§4) In the post-emerge test, a commercial non-ionic surfactant was also included (0.25% v/v) to enhance wetting of the leaf surfaces of target plants. Immediately after application, test units of the pre-emerge applications were watered at the soil surface to incorporate the test materials. Subsequently, these test units were bottom-watered. Post-emerge test units were always bottom-watered.
(§5) At 14 days after application of the test materials, phytotoxicity ratings were recorded. A rating scale of 0-100 was used as previously described in Research Methods in Weed Science, 2nd edition, B. Truelove, Ed., Southern Weed Science Society, Auburn University, Auburn, Ala., 1977. Briefly, “0” corresponds to no damage and “100” corresponds to complete death of all plants in the test unit. This scale was used both to determine efficacy against weed species and damage to crop species. Herbicide activity data for various compounds of this invention, which are shown by compound No. in Tables I-VI, are shown in Tables VIII-IX.

[2] = system: upland rice (Oryza sp., var.Tebonnet, RICE); assay: as above
Excerpt: as §1, §2, §3, §4, §5

[3] = system: field corn (Zea mays L., var. Dekalb 535, CORN); assay: Post-emerge greenhouse screening, crop safety / corn selectivity (phytotoxicity rating)
Excerpt: as §1, §2, §3, §4, §5

[4] = system: soybean (Glycine max L., var. Pella 86, SOY); assay: Pre-emerge greenhouse screening, crop safety (phytotoxicity rating)
Excerpt: as §1, §2, §3, §4, §5

[5] = system: upland rice (Oryza sp., var.Tebonnet, RICE); assay: as above
Excerpt: as §1, §2, §3, §4, §5

[6] = system: field corn (Zea mays L., var. Dekalb 535, CORN); assay: as above
Excerpt: as §1, §2, §3, §4, §5

[7] = system: redroot pigweed (Amaranthus retroflexus, AMARE); assay: Post-emerge greenhouse herbicide activity screening, phytotoxicity rating
Excerpt: as §1, §2, §3, §4, §5

[8] = system: sicklepod (Cassia obtusifolia, CASOB); assay: as above
Excerpt: as §1, §2, §3, §4, §5

[9] = system: ivyleaf morningglory (Ipomoea hederacea, IPOHE); assay: as above
Excerpt: as §1, §2, §3, §4, §5

[10] = system: large crabgrass (Digitaria sanguinalis, DIGSA); assay: as above
Excerpt: as §1, §2, §3, §4, §5

[11] = system: velvetleaf (Abutilon theophrasti, ABUTH); assay: as above
Excerpt: as §1, §2, §3, §4, §5

[12] = system: common ragweed (Ambrosia artemisiifolia L., AMBEL); assay: as above
Excerpt: as §1, §2, §3, §4, §5

[13] = system: johnsongrass (Sorghum halepense, SORHA); assay: as above
Excerpt: as §1, §2, §3, §4, §5

[14] = system: green foxtail (Setaria viridis, SETVI); assay: as above
Excerpt: as §1, §2, §3, §4, §5

[15] = system: lambsquarters (Chenopodium album, CHEAL); assay: as above
Excerpt: as §1, §2, §3, §4, §5

[16] = system: barnyardgrass (Echinochloa crus-galli, ECHCG); assay: as above
Excerpt: as §1, §2, §3, §4, §5

[17] = system: redroot pigweed (Amaranthus retroflexus, AMARE); assay: Pre-emerge greenhouse herbicide activity screening, phytotoxicity rating
Excerpt: as §1, §2, §3, §4, §5

[18] = system: sicklepod (Cassia obtusifolia, CASOB); assay: as above
Excerpt: as §1, §2, §3, §4, §5

[19] = system: ivyleaf morningglory (Ipomoea hederacea, IPOHE); assay: as above
Excerpt: as §1, §2, §3, §4, §5

[20] = system: large crabgrass (Digitaria sanguinalis, DIGSA); assay: as above
Excerpt: as §1, §2, §3, §4, §5

[21] = system: velvetleaf (Abutilon theophrasti, ABUTH); assay: as above
Excerpt: as §1, §2, §3, §4, §5

[22] = system: common ragweed (Ambrosia artemisiifolia L., AMBEL); assay: as above
Excerpt: as §1, §2, §3, §4, §5

[23] = system: johnsongrass (Sorghum halepense, SORHA); assay: as above
Excerpt: as §1, §2, §3, §4, §5

[24] = system: green foxtail (Setaria viridis, SETVI); assay: as above
Excerpt: as §1, §2, §3, §4, §5

[25] = system: lambsquarters (Chenopodium album, CHEAL); assay: as above
Excerpt: as §1, §2, §3, §4, §5

[26] = system: barnyardgrass (Echinochloa crus-galli, ECHCG); assay: as above
Excerpt: as §1, §2, §3, §4, §5

## Cn1c(C(F)(F)F)cc(=O)n(-c2cc(Oc3ncccc3[N+](=O)[O-])c(Cl)cc2F)c1=S [Compound 1-9]
[1]; 125 g ai/ha
  SOY crop damage, phytotoxicity rating (0-100 scale): 55
[1]; 250 g ai/ha
  SOY crop damage, phytotoxicity rating (0-100 scale): 80
[2]; 125 g ai/ha
  RICE crop damage, phytotoxicity rating (0-100 scale): 0
[2]; 250 g ai/ha
  RICE crop damage, phytotoxicity rating (0-100 scale): 0
[3]; 125 g ai/ha
  CORN crop damage, phytotoxicity rating (0-100 scale): 0
[3]; 250 g ai/ha
  CORN crop damage, phytotoxicity rating (0-100 scale): 3
[4]; 125 g ai/ha
  SOY crop damage, phytotoxicity rating (0-100 scale): 50
[4]; 250 g ai/ha
  SOY crop damage, phytotoxicity rating (0-100 scale): 50
[5]; 125 g ai/ha
  RICE crop damage, phytotoxicity rating (0-100 scale): 35
[5]; 250 g ai/ha
  RICE crop damage, phytotoxicity rating (0-100 scale): 35
[6]; 125 g ai/ha
  CORN crop damage, phytotoxicity rating (0-100 scale): 8
[6]; 250 g ai/ha
  CORN crop damage, phytotoxicity rating (0-100 scale): 8
[7]; 125 g ai/ha
  AMARE phytotoxicity rating (0-100 scale): 100
[7]; 250 g ai/ha
  AMARE phytotoxicity rating (0-100 scale): 100
[8]; 125 g ai/ha
  CASOB phytotoxicity rating (0-100 scale): 50
[8]; 250 g ai/ha
  CASOB phytotoxicity rating (0-100 scale): 65
[9]; 125 g ai/ha
  IPOHE phytotoxicity rating (0-100 scale): 100
[9]; 250 g ai/ha
  IPOHE phytotoxicity rating (0-100 scale): 100
[10]; 125 g ai/ha
  DIGSA phytotoxicity rating (0-100 scale): 50
[10]; 250 g ai/ha
  DIGSA phytotoxicity rating (0-100 scale): 60
[11]; 125 g ai/ha
  ABUTH phytotoxicity rating (0-100 scale): 100
[11]; 250 g ai/ha
  ABUTH phytotoxicity rating (0-100 scale): 100
[12]; 125 g ai/ha
  AMBEL phytotoxicity rating (0-100 scale): 70
[12]; 250 g ai/ha
  AMBEL phytotoxicity rating (0-100 scale): 70
[13]; 125 g ai/ha
  SORHA phytotoxicity rating (0-100 scale): 50
[13]; 250 g ai/ha
  SORHA phytotoxicity rating (0-100 scale): 50
[14]; 125 g ai/ha
  SETVI phytotoxicity rating (0-100 scale): 60
[14]; 250 g ai/ha
  SETVI phytotoxicity rating (0-100 scale): 70
[15]; 125 g ai/ha
  CHEAL phytotoxicity rating (0-100 scale): 100
[15]; 250 g ai/ha
  CHEAL phytotoxicity rating (0-100 scale): 100
[16]; 125 g ai/ha
  ECHCG phytotoxicity rating (0-100 scale): 50
[16]; 250 g ai/ha
  ECHCG phytotoxicity rating (0-100 scale): 65
[17]; 125 g ai/ha
  AMARE phytotoxicity rating (0-100 scale): 100
[17]; 250 g ai/ha
  AMARE phytotoxicity rating (0-100 scale): 100
[18]; 125 g ai/ha
  CASOB phytotoxicity rating (0-100 scale): 70
[18]; 250 g ai/ha
  CASOB phytotoxicity rating (0-100 scale): 99
[19]; 125 g ai/ha
  IPOHE phytotoxicity rating (0-100 scale): 100
[19]; 250 g ai/ha
  IPOHE phytotoxicity rating (0-100 scale): 100
[20]; 125 g ai/ha
  DIGSA phytotoxicity rating (0-100 scale): 98
[20]; 250 g ai/ha
  DIGSA phytotoxicity rating (0-100 scale): 99
[21]; 125 g ai/ha
  ABUTH phytotoxicity rating (0-100 scale): 100
[21]; 250 g ai/ha
  ABUTH phytotoxicity rating (0-100 scale): 100
[22]; 125 g ai/ha
  AMBEL phytotoxicity rating (0-100 scale): 99
[22]; 250 g ai/ha
  AMBEL phytotoxicity rating (0-100 scale): 100
[23]; 125 g ai/ha
  SORHA phytotoxicity rating (0-100 scale): 95
[23]; 250 g ai/ha
  SORHA phytotoxicity rating (0-100 scale): 99
[24]; 125 g ai/ha
  SETVI phytotoxicity rating (0-100 scale): 100
[24]; 250 g ai/ha
  SETVI phytotoxicity rating (0-100 scale): 100
[25]; 125 g ai/ha
  CHEAL phytotoxicity rating (0-100 scale): 100
[25]; 250 g ai/ha
  CHEAL phytotoxicity rating (0-100 scale): 100
[26]; 125 g ai/ha
  ECHCG phytotoxicity rating (0-100 scale): 95
[26]; 250 g ai/ha
  ECHCG phytotoxicity rating (0-100 scale): 99
